In US9938322B2, “β-hairpin peptidomimetics” (priority 2013, dated 2018):
*1 amine or outer side, *2 acyl side, *3 side chain or, on linkers, in order; H or OH if unused. Where a SMILES comes first, the peptide text is derived from it. Side-chain parts run from the residue outwards. [ ]: non-standard residue; d: D form. The star is where a group is joined. Abu(4,4,4-F3) = N[C@@H](CC(F)(F)F)C(=O)O; NH(4-Cl-phenyl) = Clc1ccc(N*)cc1; Cha = N[C@@H](CC1CCCCC1)C(=O)O; Tle = CC(C)(C)[C@H](N)C(=O)O; NH(2-ClPh) = Clc1ccccc1N*; dDab = NCC[C@@H](N)C(=O)O; Orn = NCCC[C@H](N)C(=O)O; Dab = NCC[C@H](N)C(=O)O; Dap = NC[C@H](N)C(=O)O; CO = O=C([*:1])[*:2]

Experiments:
Format in all cases: cell-based
[1] = system: Acinetobacter baumannii DSM 30008; conditions: Mueller-Hinton II broth + 0.02% BSA, 18-20 hours at 35° C.
Protocol: (§1) Lyophilized peptides were weighed on a Microbalance (Mettler MT5) and dissolved in sterile water to a final concentration of 1 mg/ml. Stock solutions were kept at +4° C., light protected.
(§2) The selective antimicrobial activities of the peptides were determined in 96-well plates (Greiner, polystyrene) by the standard NCCLS broth microdilution method (National Committee for Clinical Laboratory Standards 1993. Methods for dilution antimicrobial susceptibility tests for bacteria that grow aerobically, 3rd ed. Approved standard M7-A6; National Committee for Clinical laboratory standards, Wayne, Pa.) with slight modifications. Inocula of the microorganisms were diluted into Mueller-Hinton II (MH, cation adjusted) broth+0.02% BSA and compared with a 0.5 McFarland standard to give appr. 10^6 colony forming units (CFU)/ml. Aliquots (50 μl) of inoculate were added to 50 μl of MH broth+0.02% BSA containing the peptide in serial two-fold dilutions. The following microorganisms were used to determine antibiotic selectivity of the peptides: Escherichia coli ATCC 25922, Klebsiella pneumoniae ATCC 13883 and Acinetobacter baumannii DSM 30008.

[2] = system: Escherichia coli ATCC 25922; conditions: Mueller-Hinton II broth + 0.02% BSA, 18-20 hours at 35° C.
Protocol: as §1, §2

[3] = system: Klebsiella pneumoniae ATCC 13883; conditions: Mueller-Hinton II broth + 0.02% BSA, 18-20 hours at 35° C.
Protocol: as §1, §2

[4] = system: human red blood cells (hRBC); test: Hemolysis of human red blood cells
Summary of the method: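 Washed fresh human erythrocytes (20% v/v, about 0.9×10^9 cells/ml final) incubated with peptide at 100 μg/ml for 1 h at 37° C with shaking. Supernatant OD540 read; hemolysis expressed relative to 2.5% Triton X-100 (100%) and PBS with 0.001% acetic acid (0%).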

[5] = 100 μg/ml, 20% hRBC, 1 h at 37° C.

SMILES	Acinetobacter baumannii DSM 30008 MIC [1] [µg/mL]	Escherichia coli ATCC 25922 MIC [2] [µg/mL]	Klebsiella pneumoniae ATCC 13883 MIC [3] [µg/mL]	Hemolysis at 100 μg/ml [4, 5] [%]	Hemolysis at 100 μg/ml ([4]; red cells of human, 1 h, 100) [%]
C[C@@H]1NC(=O)[C@H](CNC(=O)Nc2ccccc2Cl)NC(=O)[C@@H]2CCCN2C(=O)[C@H]2CCCN2C(=O)[C@H](CO)NC(=O)[C@H](C)NC(=O)[C@H](C(C)(C)C)NC(=O)[C@H](CCN)NC(=O)[C@H](Cc2c[nH]c3ccccc23)NC(=O)[C@H](CCN)NC(=O)[C@@H](CCN)NC(=O)[C@H](CCCN)NC(=O)[C@H](CCN)NC(=O)[C@H](CC2CCCCC2)NC1=O [compound 52] (cyclo([Dap]([CO-NH(2-ClPh)])A[Cha][Dab][Orn][dDab][Dab]W[Dab][Tle]AS[dP]P))	2	1	1	0	
CC(C)C[C@@H]1NC(=O)[C@@H]2CCCN2C(=O)[C@H]2CCCN2C(=O)[C@H](CO)NC(=O)[C@H](C)NC(=O)[C@H](C(C)(C)C)NC(=O)[C@H](CCN)NC(=O)[C@H](Cc2c[nH]c3ccccc23)NC(=O)[C@H](CCN)NC(=O)[C@@H](CCN)NC(=O)[C@H](CCCN)NC(=O)[C@H](CCN)NC(=O)[C@H](CC2CCCCC2)NC(=O)[C@H](CNC(=O)Nc2ccccc2Cl)NC1=O [compound 38] (cyclo(L[Dap]([CO-NH(2-ClPh)])[Cha][Dab][Orn][dDab][Dab]W[Dab][Tle]AS[dP]P))	1	1	1	4	
C[C@@H]1NC(=O)[C@H](CNC(=O)Nc2ccc(Cl)cc2)NC(=O)[C@@H]2CCCN2C(=O)[C@H]2CCCN2C(=O)[C@H](CO)NC(=O)[C@H](C)NC(=O)[C@H](C(C)(C)C)NC(=O)[C@H](CCN)NC(=O)[C@H](Cc2c[nH]c3ccccc23)NC(=O)[C@H](CCN)NC(=O)[C@@H](CCN)NC(=O)[C@H](CCCN)NC(=O)[C@H](CCN)NC(=O)[C@H](CC2CCCCC2)NC1=O [compound 53] (cyclo([Dap]([CO-NH(4-Cl-phenyl)])A[Cha][Dab][Orn][dDab][Dab]W[Dab][Tle]AS[dP]P))	1	1	1	2	
C[C@@H]1NC(=O)[C@H](C(C)(C)C)NC(=O)[C@H](CCN)NC(=O)[C@H](Cc2c[nH]c3ccccc23)NC(=O)[C@H](CCN)NC(=O)[C@@H](CCN)NC(=O)[C@H](CCCN)NC(=O)[C@H](CCN)NC(=O)[C@H](Cc2ccc(O)cc2)NC(=O)[C@H](CO)NC(=O)[C@H](CC(F)(F)F)NC(=O)[C@@H]2CCCN2C(=O)[C@H]2CCCN2C(=O)[C@H](CO)NC1=O [compound 156] (cyclo([Abu(4,4,4-F3)]SY[Dab][Orn][dDab][Dab]W[Dab][Tle]AS[dP]P))					1
